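Values below derive from 48-hour exposures of cells grown in 96-well plates, with endpoints linearly interpolated between the two concentrations bracketing the appropriate inhibition level. GI50 is the concentration that inhibits growth by half.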 Active and inactive are the calls of the source. Rule as the data show it: active = GI50 up to about 1.1 µM and inactive = higher.
Key:
Experiment in all cases: NCI anticancer screen, dose series, 48 h
A498 = tested on: A498
A549 = tested on: A549
EKVX = tested on: EKVX
HOP-62 = tested on: HOP-62
M14 = tested on: M14
MDA-N = tested on: MDA-N
MOLT-4 = tested on: MOLT-4
NCI/ADR-RES = tested on: NCI/ADR-RES
OVCAR-4 = tested on: OVCAR-4
SK-MEL-2 = tested on: SK-MEL-2
SN12C = tested on: SN12C
SNB-75 = tested on: SNB-75
U-251 = tested on: U-251
UACC-257 = tested on: UACC-257
UACC-62 = tested on: UACC-62
UO-31 = tested on: UO-31
MCF7 = tested on: MCF7
SF-539 = tested on: SF-539
SK-MEL-5 = tested on: SK-MEL-5
SK-OV-3 = tested on: SK-OV-3

Structure (SMILES) | GI50 (A498) | GI50 (A549) | GI50 (EKVX) | GI50 (HOP-62) | GI50 (M14) | GI50 (MDA-N) | GI50 (MOLT-4) | GI50 (NCI/ADR-RES) | GI50 (OVCAR-4) | GI50 (SK-MEL-2) | GI50 (SN12C) | GI50 (SNB-75) | GI50 (U-251) | GI50 (UACC-257) | GI50 (UACC-62) | GI50 (UO-31) | GI50 (MCF7) | GI50 (SF-539) | GI50 (SK-MEL-5) | GI50 (SK-OV-3)
O=C(N/N=C\c1cccc(O)c1)c1ccncc1 | > 100 µM (inactive) | > 100 µM (inactive) | > 100 µM (inactive) | > 100 µM (inactive) | > 100 µM (inactive) | > 100 µM (inactive) | > 100 µM (inactive) | > 100 µM (inactive) | > 100 µM (inactive) | > 100 µM (inactive) | > 100 µM (inactive) | > 100 µM (inactive) | > 100 µM (inactive) | > 100 µM (inactive) | > 100 µM (inactive) | > 100 µM (inactive) | – | – | – | –
CN(Cc1cccc2ccccc12)Cc1cccc2ccccc12 | 28.8 µM (inactive) | 34 µM (inactive) | 37.5 µM (inactive) | 45.6 µM (inactive) | 27.5 µM (inactive) | – | 15.3 µM (inactive) | 47.5 µM (inactive) | 36.1 µM (inactive) | 14.1 µM (inactive) | 36.6 µM (inactive) | 46.1 µM (inactive) | 22.6 µM (inactive) | 50.1 µM (inactive) | 67.5 µM (inactive) | 36.6 µM (inactive) | 20.7 µM (inactive) | 23.8 µM (inactive) | 18.5 µM (inactive) | 65.6 µM (inactive)
CCOC(=O)c1cc2c(ccc3cc(C(=O)OCC)[nH]c32)[nH]1 | 52 µM (inactive) | 29.7 µM (inactive) | > 100 µM (inactive) | 21.7 µM (inactive) | 23 µM (inactive) | 51.5 µM (inactive) | 35.8 µM (inactive) | – | 11.4 µM (inactive) | > 100 µM (inactive) | 25.9 µM (inactive) | 16.8 µM (inactive) | 6.15 µM (inactive) | > 100 µM (inactive) | 45.9 µM (inactive) | 48.6 µM (inactive) | 50.2 µM (inactive) | 12.3 µM (inactive) | 25.8 µM (inactive) | > 100 µM (inactive)
CCc1cc2c(c3c1CCCC3)CC1(Cc3ccc(C(=O)OC)cc3C1)C2 (configuration not stated) | – | > 100 µM (inactive) | 64.4 µM (inactive) | > 100 µM (inactive) | > 100 µM (inactive) | > 100 µM (inactive) | 35.4 µM (inactive) | > 100 µM (inactive) | > 100 µM (inactive) | 94.6 µM (inactive) | > 100 µM (inactive) | > 100 µM (inactive) | 86.1 µM (inactive) | 53.1 µM (inactive) | > 100 µM (inactive) | > 100 µM (inactive) | > 100 µM (inactive) | > 100 µM (inactive) | 71.8 µM (inactive) | > 100 µM (inactive)
CCOc1cc(NC(C)=O)ccc1C(=O)NN1C(=O)/C(=C/c2cc(OC)c(OC)c(OC)c2)N=C1c1ccccc1 | > 100 µM (inactive) | > 100 µM (inactive) | > 100 µM (inactive) | – | 64.9 µM (inactive) | > 100 µM (inactive) | > 100 µM (inactive) | > 100 µM (inactive) | > 100 µM (inactive) | – | > 100 µM (inactive) | – | – | > 100 µM (inactive) | > 100 µM (inactive) | > 100 µM (inactive) | > 100 µM (inactive) | > 100 µM (inactive) | 65.8 µM (inactive) | > 100 µM (inactive)
CCN(CC)C(=S)SS(=O)(=O)c1cccc(N)c1 | > 100 µM (inactive) | > 100 µM (inactive) | > 100 µM (inactive) | > 100 µM (inactive) | > 100 µM (inactive) | > 100 µM (inactive) | > 100 µM (inactive) | > 100 µM (inactive) | > 100 µM (inactive) | > 100 µM (inactive) | > 100 µM (inactive) | – | > 100 µM (inactive) | > 100 µM (inactive) | > 100 µM (inactive) | > 100 µM (inactive) | > 100 µM (inactive) | > 100 µM (inactive) | > 100 µM (inactive) | > 100 µM (inactive)
COc1cc(C[C@@]2(C)[C@@H]3CCC[C@H](CO)[C@@]3(C)CC[C@@H]2C)c(Cl)c(OC)c1 | – | 14.4 µM (inactive) | 14.3 µM (inactive) | 17.1 µM (inactive) | 18.3 µM (inactive) | 15.5 µM (inactive) | 12.1 µM (inactive) | 15.2 µM (inactive) | 15.8 µM (inactive) | 16.8 µM (inactive) | 15.8 µM (inactive) | 18 µM (inactive) | 15.5 µM (inactive) | 18.7 µM (inactive) | 15.3 µM (inactive) | 16.6 µM (inactive) | 15.5 µM (inactive) | 14.7 µM (inactive) | 17 µM (inactive) | 17.5 µM (inactive)
CC1OC2OC3C(OCC(O)C3O)OC(=O)[C@]34CCC(C)(C)CC3C3=CCC5[C@@]6(C)C[C@H](O)[C@H](OC7OC(CO)C(O)C(O)C7OC7OCC(OC(=O)CC(C)(O)CC(=O)OC1C(O)C2O)C(O)C7O)[C@@](C)(CO)C6CC[C@@]5(C)[C@]3(C)CC4 (some centres not stated) | – | 2.24 µM (inactive) | – | 2.75 µM (inactive) | 2.82 µM (inactive) | 4.05 µM (inactive) | 8.89 µM (inactive) | 12.7 µM (inactive) | – | 7.91 µM (inactive) | 9.53 µM (inactive) | 5.64 µM (inactive) | 3.48 µM (inactive) | 2.33 µM (inactive) | 4.3 µM (inactive) | 6.03 µM (inactive) | 13 µM (inactive) | 12.7 µM (inactive) | 4.18 µM (inactive) | 3.19 µM (inactive)
CC(C)C[P+](c1ccccc1)(c1ccccc1)c1ccccc1 | 32.1 µM (inactive) | 6.22 µM (inactive) | 3.1 µM (inactive) | 13.7 µM (inactive) | 8.41 µM (inactive) | – | 3.57 µM (inactive) | > 100 µM (inactive) | 12.1 µM (inactive) | 4.36 µM (inactive) | 12.3 µM (inactive) | 13.1 µM (inactive) | 3.12 µM (inactive) | 0.342 µM (active) | 3.85 µM (inactive) | 45.5 µM (inactive) | 3.31 µM (inactive) | 14.8 µM (inactive) | 2.86 µM (inactive) | 19.8 µM (inactive)
O=C1CCSSCCC(=O)NCCN1 | > 100 µM (inactive) | > 100 µM (inactive) | > 100 µM (inactive) | > 100 µM (inactive) | > 100 µM (inactive) | > 100 µM (inactive) | > 100 µM (inactive) | > 100 µM (inactive) | > 100 µM (inactive) | > 100 µM (inactive) | > 100 µM (inactive) | – | > 100 µM (inactive) | > 100 µM (inactive) | > 100 µM (inactive) | > 100 µM (inactive) | – | > 100 µM (inactive) | > 100 µM (inactive) | > 100 µM (inactive)
COC(=O)C1Cc2c(OC)ccc(OC)c2C(O)C1C(=O)OC (configuration not stated) | – | > 100 µM (inactive) | > 100 µM (inactive) | > 100 µM (inactive) | > 100 µM (inactive) | > 100 µM (inactive) | > 100 µM (inactive) | > 100 µM (inactive) | > 100 µM (inactive) | > 100 µM (inactive) | > 100 µM (inactive) | > 100 µM (inactive) | > 100 µM (inactive) | > 100 µM (inactive) | > 100 µM (inactive) | > 100 µM (inactive) | > 100 µM (inactive) | > 100 µM (inactive) | > 100 µM (inactive) | –
CCOC(=O)Cc1csc2[n+]1C(=O)/C(=C/c1cccc(OC)c1O)S2 | – | 67.5 µM (inactive) | 74.1 µM (inactive) | > 100 µM (inactive) | 77.6 µM (inactive) | 40.1 µM (inactive) | 4.43 µM (inactive) | 47 µM (inactive) | 64.4 µM (inactive) | 45 µM (inactive) | 81.5 µM (inactive) | 18.7 µM (inactive) | 0.192 µM (active) | 61.8 µM (inactive) | 97.7 µM (inactive) | 28.7 µM (inactive) | 45.3 µM (inactive) | 60.8 µM (inactive) | 42.9 µM (inactive) | > 100 µM (inactive)
Cc1cc(S(=O)(=O)[N-]/C(=N/S(=O)(=O)c2ccc(Cl)cc2)[n+]2ccc(N(C)C)cc2)c(S)cc1Cl | 26.4 µM (inactive) | – | > 100 µM (inactive) | 43.5 µM (inactive) | 35.3 µM (inactive) | > 100 µM (inactive) | 0.656 µM (active) | > 100 µM (inactive) | 55.5 µM (inactive) | > 100 µM (inactive) | – | – | 47 µM (inactive) | > 100 µM (inactive) | – | 79.4 µM (inactive) | 47.9 µM (inactive) | 83.4 µM (inactive) | > 100 µM (inactive) | 41.2 µM (inactive)
COc1ccc(CC2COc3cc(OC)cc(OC)c3C2=O)cc1 (configuration not stated) | 79.3 µM (inactive) | 33.9 µM (inactive) | 29.5 µM (inactive) | 24.9 µM (inactive) | 16.4 µM (inactive) | 3.76 µM (inactive) | 30.3 µM (inactive) | 8.34 µM (inactive) | 17.2 µM (inactive) | 36.5 µM (inactive) | 38.9 µM (inactive) | – | 37 µM (inactive) | 32.5 µM (inactive) | 32.8 µM (inactive) | 24.7 µM (inactive) | 36 µM (inactive) | 14.4 µM (inactive) | 21.1 µM (inactive) | 19.8 µM (inactive)
COc1cc([N+](=O)[O-])c(S(=O)(=O)O)cc1-n1nc(-c2ccccc2)n[n+]1-c1cc(S(=O)(=O)[O-])c([N+](=O)[O-])cc1OC | – | > 100 µM (inactive) | > 100 µM (inactive) | > 100 µM (inactive) | > 100 µM (inactive) | > 100 µM (inactive) | > 100 µM (inactive) | > 100 µM (inactive) | > 100 µM (inactive) | > 100 µM (inactive) | > 100 µM (inactive) | > 100 µM (inactive) | > 100 µM (inactive) | > 100 µM (inactive) | > 100 µM (inactive) | > 100 µM (inactive) | > 100 µM (inactive) | > 100 µM (inactive) | > 100 µM (inactive) | > 100 µM (inactive)
